Test results reported in patent US20210198277A1, “AMINE-SUBSTITUTED ARYL OR HETEROARYL COMPOUNDS” (Epizyme, Inc., priority 2016, published 2021).
Where two headings read alike, the source gives them in different places.

How the values were obtained:
EHMT1 = target: T1, EHMT1 (Homo sapiens, UniProt Q9H9B1); assay: EHMT1 enzyme assay on peptide substrate (EHMT1 PEP); type: biochemical
T1 sequence (Q9H9B1 1-1298): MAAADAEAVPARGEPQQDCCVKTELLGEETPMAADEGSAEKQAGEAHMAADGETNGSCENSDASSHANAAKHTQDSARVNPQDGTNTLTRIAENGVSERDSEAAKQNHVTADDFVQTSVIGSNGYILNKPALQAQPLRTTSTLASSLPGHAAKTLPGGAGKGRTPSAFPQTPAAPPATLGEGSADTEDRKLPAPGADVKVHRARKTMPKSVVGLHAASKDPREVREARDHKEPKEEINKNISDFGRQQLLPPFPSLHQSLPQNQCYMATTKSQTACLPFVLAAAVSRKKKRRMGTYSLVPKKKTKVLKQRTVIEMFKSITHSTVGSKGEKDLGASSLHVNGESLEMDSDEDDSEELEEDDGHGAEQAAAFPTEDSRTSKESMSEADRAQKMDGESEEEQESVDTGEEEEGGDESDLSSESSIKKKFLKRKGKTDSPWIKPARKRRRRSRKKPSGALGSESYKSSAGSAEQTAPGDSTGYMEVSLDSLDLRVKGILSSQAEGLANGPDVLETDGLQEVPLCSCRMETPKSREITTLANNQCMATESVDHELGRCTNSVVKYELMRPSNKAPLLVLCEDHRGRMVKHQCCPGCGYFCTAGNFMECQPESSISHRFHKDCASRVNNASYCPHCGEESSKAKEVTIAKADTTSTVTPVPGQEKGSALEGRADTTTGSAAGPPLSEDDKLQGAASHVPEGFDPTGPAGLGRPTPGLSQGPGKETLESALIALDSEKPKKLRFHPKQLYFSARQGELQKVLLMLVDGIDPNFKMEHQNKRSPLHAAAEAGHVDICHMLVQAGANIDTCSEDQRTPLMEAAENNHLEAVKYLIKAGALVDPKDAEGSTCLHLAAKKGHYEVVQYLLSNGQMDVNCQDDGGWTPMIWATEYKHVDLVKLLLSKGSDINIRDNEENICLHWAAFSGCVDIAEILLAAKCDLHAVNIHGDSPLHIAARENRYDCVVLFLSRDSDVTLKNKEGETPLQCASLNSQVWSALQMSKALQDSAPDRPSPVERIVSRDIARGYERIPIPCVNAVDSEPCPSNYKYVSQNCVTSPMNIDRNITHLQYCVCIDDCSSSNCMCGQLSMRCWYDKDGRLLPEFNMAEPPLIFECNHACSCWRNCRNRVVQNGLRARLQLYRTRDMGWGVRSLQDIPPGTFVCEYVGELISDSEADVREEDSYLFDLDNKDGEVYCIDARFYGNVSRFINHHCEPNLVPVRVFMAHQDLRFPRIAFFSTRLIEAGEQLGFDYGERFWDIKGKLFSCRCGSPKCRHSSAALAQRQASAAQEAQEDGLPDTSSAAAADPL

human EHMT2 913-1193 = target: T2, human EHMT2 913-1193 (Homo sapiens, UniProt Q96KQ7); assay: EHMT2 enzyme assay on histone peptide substrate (EHMT2 PEP); type: biochemical
T2 construct: recombinant purified human EHMT2 913-1193, Viva; purchased Viva
T2 sequence (Q96KQ7 913-1193): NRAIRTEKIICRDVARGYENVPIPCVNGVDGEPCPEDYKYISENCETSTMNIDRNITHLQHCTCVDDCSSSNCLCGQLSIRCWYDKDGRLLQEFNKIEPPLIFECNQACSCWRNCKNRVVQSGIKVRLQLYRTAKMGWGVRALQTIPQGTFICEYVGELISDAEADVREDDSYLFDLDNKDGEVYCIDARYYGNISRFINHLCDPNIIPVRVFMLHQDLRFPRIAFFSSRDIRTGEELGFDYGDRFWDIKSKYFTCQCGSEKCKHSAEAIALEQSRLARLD
Description: Recombinant purified human EHMT2 913-1193 (55 μM) synthesized by Viva was used for all experiments. Biotinylated histone peptides were synthesized by Biopeptide and HPLC-purified to >95% purity. Streptavidin Flashplates and seals were purchased from PerkinElmer and 384 Well V-bottom Polypropylene Plates were from Greiner. ^3H-labeled S-adenosylmethionine (^3H-SAM) was obtained from American Radiolabeled Chemicals with a specific activity of 80 Ci/mmol. Unlabeled SAM and S-adenosylhomocysteine (SAH) were obtained from American Radiolabeled Chemicals and Sigma-Aldrich respectively. Flashplates were washed in a Biotek ELx-405 with 0.1% Tween. 384-well Flashplates and 96-well filter binding plates were read on a TopCount microplate reader (PerkinElmer). Compound serial dilutions were performed on a Freedom EVO (Tecan) and spotted into assay plates using a Thermo Scientific Matrix PlateMate (Thermo Scientific). Reagent cocktails were added by Multidrop Combi (Thermo Scientific).
General Procedure for EHMT2 Enzyme Assay on Histone Peptide Substrate.
10-point curves of test compounds were made on a Freedom EVO (Tecan) using serial 3-fold dilutions in DMSO, beginning at 2.5 mM (final top concentration of compound was 50 μM and the DMSO was 2%). A 1 μL aliquot of the inhibitor dilution series was spotted in a polypropylene 384-well V-bottom plate (Greiner) using a Thermo Scientific Matrix PlateMate (Thermo Scientific). […] Compounds were incubated for 30 minutes with 40 μL per well of 0.031 nM EHMT2 (recombinant purified human EHMT2 913-1193, Viva) in 1× assay buffer (20 mM Bicine [pH 7.5], 0.002% Tween 20, 0.005% Bovine Skin Gelatin and 1 mM TCEP). […] Reactions were incubated for 60 minutes at room temperature and quenched with 10 μL per well of 400 μM unlabeled SAM, then transferred to a 384-well streptavidin Flashplate (PerkinElmer) and washed in a Biotek ELx-405 well washer with 0.1% Tween after 60 minutes. 384-well Flashplates were read on a TopCount microplate reader (PerkinElmer).

[1] = Table II, read-out: EHMT1 PEP (IC50 μM)
[2] = Table II, read-out: EHMT2 PEP (IC50 μM)
[3] = Table III, read-out: EHMT1 PEP (IC50 μM)
[4] = Table III, read-out: EHMT2 PEP (IC50 μM)
[5] = Table VII, read-out: EHMT1 PEP IC50
[6] = Table VII, read-out: EHMT2 PEP IC50

| SMILES | IC50 (EHMT1; [1]) [µM] | IC50 (human EHMT2 913-1193; [2]) [µM] | further results |
| --- | --- | --- | --- |
| COc1ccc(Nc2nccc(CNC3CCN(C)CC3)n2)cc1OCCCN1CCCC1 [Compound 111] | > 10 | > 10 |  |
| COc1ccc(Nc2nccc(CN(C)C3CCOCC3)n2)cc1OCCCN1CCCC1 [Compound 112] | > 10 | > 10 |  |
| COc1ccc(Nc2cccc(NCC3CCNCC3)n2)cc1OCCCN1CCCC1 [Compound 113] | 1 to 10 | 1 to 10 |  |
| CC(=O)N1CCC(CNc2ccnc(Nc3cccc(NC(=O)CCN4CCCC4)c3)n2)CC1 [Compound 114] | > 10 | > 10 |  |
| CC(=O)N1CCC(CNc2ccnc(Nc3cccc(NC(=O)c4ccc5c(c4)CC(=O)N5)c3)n2)CC1 [Compound 115] | > 10 | > 10 |  |
| COc1ccc(Nc2nccc(NCC3CCNCC3)n2)cc1OCCCN1CCCC1Cc1ccccc1 (stereo not drawn) [Compound 116] | 1 to 10 | 1 to 10 |  |
| COc1ccc(Nc2nccc(NCC3CCN(C(C)=O)CC3)n2)cc1OCCCN1CC[C@H](F)C1 [Compound 117] | 1 to 10 | 1 to 10 |  |
| COc1ccc(Nc2nccc(NCC3CCN(C(C)=O)CC3)n2)cc1OCCCN1CC[C@@H](F)C1 [Compound 118] | 0.1 to 1 | 0.1 to 1 |  |
| COc1ccc(Nc2nccc(NCC3CCN(C(C)=O)CC3)n2)cc1OCCCN1CCCC1=O [Compound 119] | > 10 | > 10 |  |
| COc1ccc(Nc2nccc(NCC3CCN(C(C)=O)CC3)n2)cc1OCC1CCCN1C (stereo not drawn) [Compound 120] | 0.1 to 1 | 1 to 10 |  |
| COc1ccc(Nc2nccc(NCC3CCN(C(C)=O)CC3)n2)cc1NC(=O)CCN1CCCC1 [Compound 121] | 1 to 10 | 1 to 10 |  |
| CC(=O)N1CCC(CNc2ccnc(Nc3cccc(NC(=O)c4cc(C5CC5)on4)c3)n2)CC1 [Compound 122] | > 10 | > 10 |  |
| CC(=O)N1CCC(CNc2ccnc(Nc3cccc(NC(=O)c4cn(C5CC5)nn4)c3)n2)CC1 [Compound 123] | > 10 | > 10 |  |
| COc1ccc(Nc2nccc(N3CCCC3)n2)cc1OCCCN1CCCC1 [Compound 124] | 1 to 10 | 1 to 10 |  |
| COc1ccc(Nc2nccc(N3CCCCC3)n2)cc1OCCCN1CCCC1 [Compound 125] | 1 to 10 | 1 to 10 |  |
| COc1ccc(Nc2ccnc(CNC3CCOCC3)n2)cc1OCCCN1CCCC1 [Compound 190] | 1 to 10 | 1 to 10 |  |
| COc1ccc(Nc2ncc(NC(C)=O)cn2)cc1OCCCN1CCCC1 [Compound 194] | > 10 | > 10 |  |

| SMILES | IC50 (EHMT1; [1]) [µM] | IC50 (human EHMT2 913-1193; [2]) [µM] | further results |
| --- | --- | --- | --- |
| COc1ccc(Nc2nccc(CCN3CCN(C(C)=O)CC3)n2)cc1OCCCN1CCCC1 [Compound 196] | > 10 | > 10 |  |
| COc1ccc(Nc2cccc3nn(C)cc23)cc1OCCCN1CCCC1 [Compound 197] | > 10 | > 10 |  |
| COc1ccc(Nc2ccc3ncn(C)c3c2)cc1OCCCN1CCCC1 [Compound 200] | > 10 | > 10 |  |
| COc1ccc(Nc2cccn3ncnc23)cc1OCCCN1CCCC1 [Compound 201] | > 10 | > 10 |  |
| COc1ccc(Nc2cc(C)nc3ncnn23)cc1OCCCN1CCCC1 [Compound 202] | > 10 | > 10 |  |
| CNc1nc(Nc2ccc(OC)c(OCCCN3CCCC3)c2)ncc1Cl [Compound 211] | 1 to 10 | 1 to 10 |  |
| CNc1ccnc(Nc2cccc(OCC(O)CN3CCCC3)c2)n1 (stereo not drawn) [Compound 212] | 1 to 10 | 1 to 10 |  |
| COc1ccc(Nc2ncc(N)cn2)cc1OCCCN1CCCC1 [Compound 213] | > 10 | > 10 |  |
| COc1ccc(Nc2nccc(NCC3COC3)n2)cc1OCCCN1CCCC1 [Compound 256, N^2-(4-methoxy-3-(3-(pyrrolidin-1-yl)propoxy)phenyl)-N^4-(oxetan-3-ylmethyl)pyrimidine-2,4-diamine] |  |  | IC50 (EHMT1; [3]): > 10 µM; IC50 (human EHMT2 913-1193; [4]): > 10 µM |
| CNc1nc(Nc2ccc(OC)c(OCCCN3CCCC3)c2)nc2ccccc12 [Compound 263, N^2-(4-methoxy-3-(3-(pyrrolidin-1-yl)propoxy)phenyl)-N^4-methylquinazoline-2,4-diamine] |  |  | IC50 (EHMT1; [3]): < 0.1 µM; IC50 (human EHMT2 913-1193; [4]): < 0.1 µM |
| CNc1ccnc(Nc2ccc(OC(F)(F)F)c(OCCCN3CCCC3)c2)n1 [Compound 315, N^4-methyl-N^2-(3-(3-(pyrrolidin-1-yl)propoxy)-4-(trifluoromethoxy)phenyl)pyrimidine-2,4-diamine] |  |  | IC50 (EHMT1; [3]): 1 to 10 µM; IC50 (human EHMT2 913-1193; [4]): 1 to 10 µM |
| CCc1ccccc1NC(=O)Nc1ccc(Nc2nc(C)cc(N3CCCC3)n2)cc1 [Compound 1115] |  |  | IC50 (EHMT1; [5]): 1 to 10 µM; IC50 (human EHMT2 913-1193; [6]): 1 to 10 µM |
| CCNc1nc(C)cc(Nc2ccc(NC(=O)Nc3ccc(F)cc3)cc2)n1 [Compound 1116] |  |  | IC50 (EHMT1; [5]): > 10 µM; IC50 (human EHMT2 913-1193; [6]): 1 to 10 µM |
| Cc1cc(N(C)C)nc(Nc2ccc(NC(=O)Nc3ccc(Cl)cc3)cc2)n1 [Compound 1117] |  |  | IC50 (EHMT1; [5]): > 10 µM; IC50 (human EHMT2 913-1193; [6]): 1 to 10 µM |
| CCNc1nc(C)cc(Nc2ccc(NC(=O)Nc3ccc(C)c(C)c3)cc2)n1 [Compound 1118] |  |  | IC50 (EHMT1; [5]): > 10 µM; IC50 (human EHMT2 913-1193; [6]): 1 to 10 µM |
| Cc1ccc(NC(=O)Nc2ccc(Nc3nc(C)cc(N4CCCC4)n3)cc2)cc1 [Compound 1119] |  |  | IC50 (EHMT1; [5]): 1 to 10 µM; IC50 (human EHMT2 913-1193; [6]): 1 to 10 µM |
